According to patent US20260200931A1, “PYRIDINE POLYCYCLIC COMPOUND INHIBITOR, PREPARATION METHOD THEREFOR AND USE THEREOF” (SHANGHAI HANSOH BIOMEDICAL CO., LTD, priority 2022, published 2026):
One block for each compound: values may come before it.

Columns and labels:
human CYP11B1 = target: T1, human CYP11B1 (Homo sapiens, UniProt P15538); assay: G-402 cell enzyme experiment, human CYP11B1 (cortisol production, HTRF); selectivity of CYP11B2 over CYP11B1; type: cell-based; details: G-402 cells expressing human CYP11B1 or CYP11B2; selectivity for CYP11B2 over CYP11B1
T1 construct: The main elements of an expression plasmid include ORF of human CYP11B1 or human CYP11B2; expressed in transfected cells
T1 sequence (P15538 25-503): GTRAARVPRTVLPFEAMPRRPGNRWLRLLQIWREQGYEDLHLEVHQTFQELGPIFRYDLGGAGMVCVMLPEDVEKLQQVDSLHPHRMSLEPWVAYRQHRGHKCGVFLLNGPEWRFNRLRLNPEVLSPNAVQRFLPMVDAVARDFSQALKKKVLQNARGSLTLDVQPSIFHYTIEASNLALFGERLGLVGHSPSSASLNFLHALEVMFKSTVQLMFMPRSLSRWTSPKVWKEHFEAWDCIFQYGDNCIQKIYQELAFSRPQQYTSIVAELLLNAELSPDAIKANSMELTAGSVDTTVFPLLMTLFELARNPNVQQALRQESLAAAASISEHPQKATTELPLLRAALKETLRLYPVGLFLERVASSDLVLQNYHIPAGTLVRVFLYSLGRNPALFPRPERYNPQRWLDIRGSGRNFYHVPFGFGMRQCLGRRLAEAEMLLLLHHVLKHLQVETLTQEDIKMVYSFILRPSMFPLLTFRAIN
Source text: (§1) G-402 cell line was used as host cells to express (by transient or stable transfection) an enzyme of the human CYP11 family. Specifically, G-402 cell lines stably expressing human CYP11B1 and human CYP11B2 were established respectively. […] Therefore, the G-402 cell line is very suitable as a host cell for the ectopic expression of an enzyme of the CYP11 family.
(§2) The G-402 cell line, originally derived from renal myoblastoma, can be obtained from ATCC (CRL-1440). The main elements of an expression plasmid include ORF of human CYP11B1 or human CYP11B2, a suitable promoter (CMV promoter), and a suitable resistance marker (neomycin). The expression plasmid was transfected into G-402 cells by standard technology, and a specific antibiotic was then given for screening. The activity of the enzyme expressed by the screened monoclonal cells was assessed by 11-deoxycorticosterone (substrate of CYP11B2) and 11-deoxycortisol (substrate of CYP11B1).
(§3) The G-402 cells expressing CYP11 plasmid, as established in the above solution, were cultured in McCoy's 5a Modified Medium (ATCC Catalog No. 30-2007) containing 10% FCS and 400 μg/ml G418 in an incubator at 37° C. and 5% CO2. A cell enzyme experiment was carried out using DMEM/F12 medium containing 2.5% charcoal-treated FBS and an appropriate concentration of a substrate (1 μM 11-deoxycorticosterone or 1 μM 11-deoxycortisol). In order to detect the activity of the enzyme in the cells, the cells were plated in a 96-well plate and incubated for 16 h. The supernatant was then transfered and analyzed for the concentration of the expected product (the product of CYP11B2: aldosterone; the product of CYP11B1: cortisol). The concentrations of these products were determined by an HTRF experiment of CisBio.
(§4) In the cell enzyme experiment, the inhibitory effect of the test compound on the generated product can reflect the inhibitory effect thereof on the enzyme. The dose-dependent inhibition of the enzyme activity by the compound was calculated by plotting the concentration of the test compound (x axis) versus the measured product level (y axis). Then, the original data was fitted to a 4-parameter sigmoidal function (Morgan-Mercer-Flodin, MMF model) by least square method: y=(AB+Cx^D)/(B+x^D) in which A is the maximum y value, B is the EC50 determined by XLFit, C is the minimum y value, and D is the slope value. The maximum value A corresponds to the amount of the product detected without an inhibitor, and C corresponds to the amount of the product detected in the G402 cells expressing an empty plasmid.
(§5) The EC50 value of the compound of the present patent was determined by the above G-402 experiment system. […]

[1] = Pharmacokinetic assay in mice; type: in vivo; details: mouse, male Balb/c mice, plasma, table does not print the route (objective: oral administration, PO 5 mg/kg)
Description: Balb/c mice were used as test animals to study the pharmacokinetic behavior of the compounds of the present disclosure in mice (plasma) after oral administration.
Compounds of the present disclosure, made in house.
3 Balb/c mice per group, male; from Shanghai Bk Lab Animal Co., Ltd., with animal production license number (SCXK (Shanghai) 2013-0006 N0.311620400001794).
0.5 g of sodium carboxymethyl cellulose (CMC-Na, viscosity: 800-1200 Cps) was weighed and dissolved in 99 mL of purified water, and 1 ml of Tween 80 was added. These materials were uniformly mixed to form a clear solution.
Examples 1 and 2 were weighed and dissolved in the solution, and the mixtures were shaken well and ultrasonicated for 15 min to obtain colorless clear solutions with a concentration of 0.5 mg/mL.
Examples 1 and 2 were weighed, and 5% of DMSO was added based on the total administration volume; the mixture was vortexed and ultrasonicated for 2 min to ensure complete dissolution; then, 10% Solutol HS15 was added, and the mixture was vortexed and ultrasonicated for 2 min to achieve complete dissolution; finally, 85% PBS was added, and the mixture was vortexed and ultrasonicated for 5 min; the resulting mixture was filtered through a […] filter membrane to obtain a colorless, transparent, and clear solution with a concentration of 0.2 mg/mL.
After overnight fasting, 3 male Balb/c mice per group were administered orally (PO) at a dose of 5 mg/kg with an administration volume of 10 mL/kg.
After overnight fasting, 3 male Balb/c mice per group were administered intravenously (IV) at a dose of 1 mg/kg with an administration volume of 5 mL/kg.
0.04 mL of blood was collected from the orbit of the experimental animals before administration and at 0.25 h, 0.5 h, 1.0 h, 2.0 h, 4.0 h, 6.0 h, 8.0 h, and 24.0 h after administration and placed in an EDTA-2K test tube, and the test tube was centrifuged at 8000 rpm for 6 min at 4° C. to separate the plasma, which was stored at −80° C.; and the animals were fed 4 h after administration.
The final determination results were obtained by using LCMS/MS method.

cortisol = assay: In vivo efficacy assay, ACTH challenge: plasma cortisol; parameters: species or system cynomolgus monkeys; details: for Cortisol, 0: 0 hour after 5 μg/kg ACTH I.V. (given one hour after dosing); for Cortisol, 1 h: 1 h after 5 μg/kg ACTH I.V.
Description: (§6) Male cynomolgus monkeys were gavaged (P.O.) with the compounds to be tested and divided into 0 mpk (vehicle group), 0.1 mpk, 0.3 mpk, 1 mpk, and 3 mpk dose groups. Each group was given 5 μg/kg ACTH intravenous injection (I.V.) after one hour. Blood samples were collected at −1 hour, 0 hour, 0.5 hours, 1.0 hour, 1.5 hours, 2 hours, and 3 hours after intravenous injection of ACTH. The volume was about 0.5 mL at each time point. The samples were centrifuged (3200 g, at 2-8° C. for 10 minutes) within one hour after collection. The contents of the plasma aldosterone, cortisol, corticosterone, 11-deoxycortisol, and 11-deoxycorticosterone at each time point were then analyzed by LC/MS-MS method.

aldosterone = assay: In vivo efficacy assay, ACTH challenge: plasma aldosterone; parameters: species or system cynomolgus monkeys; details: for Aldosterone, 0: 0 hour after 5 μg/kg ACTH I.V. (given one hour after dosing); for Aldosterone, 0.5 h: 0.5 h after 5 μg/kg ACTH I.V.
Description: as §6

human CYP11B2 = target: T2, human CYP11B2 (Homo sapiens, UniProt P19099); assay: G-402 cell enzyme experiment, human CYP11B2 (aldosterone production, HTRF); type: cell-based; details: G-402 cells stably expressing human CYP11B2; 1 μM 11-deoxycorticosterone; 16 h; aldosterone by HTRF
T2 construct: The main elements of an expression plasmid include ORF of human CYP11B1 or human CYP11B2; expressed in transfected cells
T2 sequence (P19099 25-503): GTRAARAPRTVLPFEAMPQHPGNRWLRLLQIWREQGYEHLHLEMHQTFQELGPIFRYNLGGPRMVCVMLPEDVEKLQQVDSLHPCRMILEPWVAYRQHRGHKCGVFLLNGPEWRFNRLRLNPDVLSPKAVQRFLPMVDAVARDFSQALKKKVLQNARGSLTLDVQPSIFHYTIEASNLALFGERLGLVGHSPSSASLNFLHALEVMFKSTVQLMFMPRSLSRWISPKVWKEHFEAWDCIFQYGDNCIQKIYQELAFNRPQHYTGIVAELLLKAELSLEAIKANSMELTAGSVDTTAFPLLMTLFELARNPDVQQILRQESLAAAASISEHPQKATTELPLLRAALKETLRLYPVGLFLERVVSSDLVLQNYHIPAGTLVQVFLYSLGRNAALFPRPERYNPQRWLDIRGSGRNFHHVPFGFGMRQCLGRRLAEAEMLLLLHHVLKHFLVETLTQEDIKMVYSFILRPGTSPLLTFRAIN
Source text: as §1, §2, §3, §4, §5

Compound: CCS(=O)(=O)N1CC(Oc2cncc(-c3ccc4c(c3)COC(=O)N4C)c2)C1 [Example 58, 6-(5-((1-(Ethylsulfonyl)azetidin-3-yl)oxy)pyridin-3-yl)-1-methyl-1,4-dihydro-2H-benzo[d][1,3]oxazin-2-one]
EC50 (human CYP11B2): 0.048 µM

Compound: CN1C(=O)OCc2cc(-c3cncc(N4CC5(CN(C(=O)c6cnn(C)c6)C5)C4)c3)ccc21 [Example 60, 1-Methyl-6-(5-(6-(1-methyl-1H-pyrazole-4-carbonyl)-2,6-diazaspiro[3.3]heptan-2-yl)pyridin-3-yl)-1,4-dihydro-2H-benzo[d][1,3]oxazin-2-one]
hsF (human selective factor: ratio of CYP11B1 EC50 to CYP11B2 EC50) (human CYP11B1): >1279×

Compound: CN1C(=O)OCc2cc(-c3cncc(C4=CCN(S(=O)(=O)C5CC5)CC4)c3)ccc21 [Example 68, 6-(1′-(Cyclopropylsulfonyl)-1′,2′,3′,6′-tetrahydro-[3,4′-bipyridine]-5-yl)-1-methyl-1,4-dihydro-2H-benzo[d][1,3]oxazin-2-one]
hsF (human selective factor: ratio of CYP11B1 EC50 to CYP11B2 EC50) (human CYP11B1): 394× | EC50 (human CYP11B2): 0.007 µM

Further lines, with some results ahead:

hsF (human selective factor: ratio of CYP11B1 EC50 to CYP11B2 EC50) (human CYP11B1): 144× | AUC(0-inf) [1]: 20800 ng·h/mL | AUC(0-t) [1]: 20800 ng·h/mL | Cmax [1]: 3770 ng/mL | Tmax [1]: 0.3 h | half-life [1]: 2.7 h | MRT inf ([1]; read-out: MRT0-∞): 4.7 h | EC50 (human CYP11B2): 0.07 µM
Compound: CCC(=O)N[C@@H]1CCCc2c(-c3ccc4c(c3)COC(=O)N4C)cncc21 [Example 1-A]
Cortisol, 0 (cortisol; 0.1 mpk P.O.): 246 ng/mL | Cortisol, 1 h (cortisol; 0.1 mpk P.O.): 360 ng/mL | Cortisol, 0 (cortisol; 0.3 mpk P.O.): 230 ng/mL | Cortisol, 1 h (cortisol; 0.3 mpk P.O.): 355 ng/mL | Cortisol, 0 (cortisol; 1 mpk P.O.): 215 ng/mL | Cortisol, 1 h (cortisol; 1 mpk P.O.): 315 ng/mL | Cortisol, 0 (cortisol; 3 mpk P.O.): 225 ng/mL | Cortisol, 1 h (cortisol; 3 mpk P.O.): 326 ng/mL | Aldosterone, 0 (aldosterone; 0.1 mpk P.O.): 0.38 ng/mL | Aldosterone, 0.5 h (aldosterone; 0.1 mpk P.O.): 0.33 ng/mL | Aldosterone, 0 (aldosterone; 0.3 mpk P.O.): 0.23 ng/mL | Aldosterone, 0.5 h (aldosterone; 0.3 mpk P.O.): 0.17 ng/mL | Aldosterone, 0 (aldosterone; 1 mpk P.O.): 0.12 ng/mL | Aldosterone, 0.5 h (aldosterone; 1 mpk P.O.): 0.15 ng/mL | Aldosterone, 0 (aldosterone; 3 mpk P.O.): 0.13 ng/mL | Aldosterone, 0.5 h (aldosterone; 3 mpk P.O.): 0.09 ng/mL

hsF (human selective factor: ratio of CYP11B1 EC50 to CYP11B2 EC50) (human CYP11B1): 174×
Compound: CCC(=O)N[C@@H]1CCCc2c(-c3ccc4c(c3)OCC(=O)N4C)cncc21 [Example 2-A]

EC50 (human CYP11B2): 0.035 µM
Compound: CN1C(=O)CCc2cc(-c3cncc4c3CCC[C@H]4NC(=O)CC34CC(C3)C4)ccc21 [Example 37]
